Laboratory results reported in patent US20090318351A1, “METHOD OF TREATING ACUTE ST-ELEVATION MYOCARDIAL INFARCTION WITH A DELTA PKC ANTAGONIST” (priority 2008, published 2009).

test: Plasma stability of capped peptides (KAI-9706 modified at amino and carboxy termini); details: rat
Protocol: Plasma stability of capped peptides was compared. KAI-9706 was modified step-wise at its amino and carboxy termini. Plasma stability as measured by the percent of peptide composition remaining after 15 minutes.

Point of comparison: `CC[C@H](C)[C@H](NC(=O)[C@@H]1CCCN1C(=O)[C@H](C)NC(=O)[C@H](CC(=O)O)NC(=O)[C@H](Cc1c[nH]cn1)NC(=O)[C@H](CSSC[C@H](N)C(=O)N[C@@H](Cc1ccc(O)cc1)C(=O)NCC(=O)N[C@@H](CCCNC(=N)N)C(=O)N[C@@H](CCCCN)C(=O)N[C@@H](CCCCN)C(=O)N[C@@H](CCCNC(=N)N)C(=O)N[C@@H](CCCNC(=N)N)C(=O)N[C@@H](CCC(N)=O)C(=O)N[C@@H](CCCNC(=N)N)C(=O)N[C@@H](CCCNC(=N)N)C(=O)N[C@@H](CCCNC(=N)N)C(=O)O)NC(C)=O)C(=O)NCC(=O)N[C@@H](Cc1ccc(O)cc1)C(=O)N[C@@H](CC(=O)O)C(N)=O` [KAI-9706 carrier H—OH cargo Ac—NH2], remaining at 0.25 h 0%. Against it:
- CC[C@H](C)[C@H](NC(=O)[C@@H]1CCCN1C(=O)[C@H](C)NC(=O)[C@H](CC(=O)O)NC(=O)[C@H](Cc1c[nH]cn1)NC(=O)[C@H](CSSC[C@H](N)C(=O)N[C@@H](Cc1ccc(O)cc1)C(=O)NCC(=O)N[C@@H](CCCNC(=N)N)C(=O)N[C@@H](CCCCN)C(=O)N[C@@H](CCCCN)C(=O)N[C@@H](CCCNC(=N)N)C(=O)N[C@@H](CCCNC(=N)N)C(=O)N[C@@H](CCC(N)=O)C(=O)N[C@@H](CCCNC(=N)N)C(=O)N[C@@H](CCCNC(=N)N)C(=O)N[C@@H](CCCNC(=N)N)C(N)=O)NC(C)=O)C(=O)NCC(=O)N[C@@H](Cc1ccc(O)cc1)C(=O)N[C@@H](CC(=O)O)C(N)=O [KAI-9706 carrier H—NH2 cargo Ac—NH2] — higher, 51%
- CC[C@H](C)[C@H](NC(=O)[C@@H]1CCCN1C(=O)[C@H](C)NC(=O)[C@H](CC(=O)O)NC(=O)[C@H](Cc1c[nH]cn1)NC(=O)[C@H](CSSC[C@H](NC(C)=O)C(=O)N[C@@H](Cc1ccc(O)cc1)C(=O)NCC(=O)N[C@@H](CCCNC(=N)N)C(=O)N[C@@H](CCCCN)C(=O)N[C@@H](CCCCN)C(=O)N[C@@H](CCCNC(=N)N)C(=O)N[C@@H](CCCNC(=N)N)C(=O)N[C@@H](CCC(N)=O)C(=O)N[C@@H](CCCNC(=N)N)C(=O)N[C@@H](CCCNC(=N)N)C(=O)N[C@@H](CCCNC(=N)N)C(=O)O)NC(C)=O)C(=O)NCC(=O)N[C@@H](Cc1ccc(O)cc1)C(=O)N[C@@H](CC(=O)O)C(N)=O [KAI-9706 carrier Ac—OH cargo Ac—NH2] — higher, 48%
- CC[C@H](C)[C@H](NC(=O)[C@@H]1CCCN1C(=O)[C@H](C)NC(=O)[C@H](CC(=O)O)NC(=O)[C@H](Cc1c[nH]cn1)NC(=O)[C@@H](N)CSSC[C@H](NC(C)=O)C(=O)N[C@@H](Cc1ccc(O)cc1)C(=O)NCC(=O)N[C@@H](CCCNC(=N)N)C(=O)N[C@@H](CCCCN)C(=O)N[C@@H](CCCCN)C(=O)N[C@@H](CCCNC(=N)N)C(=O)N[C@@H](CCCNC(=N)N)C(=O)N[C@@H](CCC(N)=O)C(=O)N[C@@H](CCCNC(=N)N)C(=O)N[C@@H](CCCNC(=N)N)C(=O)N[C@@H](CCCNC(=N)N)C(N)=O)C(=O)NCC(=O)N[C@@H](Cc1ccc(O)cc1)C(=O)N[C@@H](CC(=O)O)C(=O)O [KAI-9706 carrier Ac—NH2 cargo H—OH] — higher, 92%
- CC[C@H](C)[C@H](NC(=O)[C@@H]1CCCN1C(=O)[C@H](C)NC(=O)[C@H](CC(=O)O)NC(=O)[C@H](Cc1c[nH]cn1)NC(=O)[C@@H](N)CSSC[C@H](NC(C)=O)C(=O)N[C@@H](Cc1ccc(O)cc1)C(=O)NCC(=O)N[C@@H](CCCNC(=N)N)C(=O)N[C@@H](CCCCN)C(=O)N[C@@H](CCCCN)C(=O)N[C@@H](CCCNC(=N)N)C(=O)N[C@@H](CCCNC(=N)N)C(=O)N[C@@H](CCC(N)=O)C(=O)N[C@@H](CCCNC(=N)N)C(=O)N[C@@H](CCCNC(=N)N)C(=O)N[C@@H](CCCNC(=N)N)C(=O)O)C(=O)NCC(=O)N[C@@H](Cc1ccc(O)cc1)C(=O)N[C@@H](CC(=O)O)C(=O)O [KAI-9706 carrier Ac—OH cargo H—OH] — higher, 57%
- CC[C@H](C)[C@H](NC(=O)[C@@H]1CCCN1C(=O)[C@H](C)NC(=O)[C@H](CC(=O)O)NC(=O)[C@H](Cc1c[nH]cn1)NC(=O)[C@H](CSSC[C@H](N)C(=O)N[C@@H](Cc1ccc(O)cc1)C(=O)NCC(=O)N[C@@H](CCCNC(=N)N)C(=O)N[C@@H](CCCCN)C(=O)N[C@@H](CCCCN)C(=O)N[C@@H](CCCNC(=N)N)C(=O)N[C@@H](CCCNC(=N)N)C(=O)N[C@@H](CCC(N)=O)C(=O)N[C@@H](CCCNC(=N)N)C(=O)N[C@@H](CCCNC(=N)N)C(=O)N[C@@H](CCCNC(=N)N)C(=O)O)NC(C)=O)C(=O)NCC(=O)N[C@@H](Cc1ccc(O)cc1)C(=O)N[C@@H](CC(=O)O)C(=O)O [KAI-9706 carrier H—OH cargo Ac—OH] — higher, 1%
- CC[C@H](C)[C@H](NC(=O)[C@@H]1CCCN1C(=O)[C@H](C)NC(=O)[C@H](CC(=O)O)NC(=O)[C@H](Cc1c[nH]cn1)NC(=O)[C@H](CSSC[C@H](NC(C)=O)C(=O)N[C@@H](Cc1ccc(O)cc1)C(=O)NCC(=O)N[C@@H](CCCNC(=N)N)C(=O)N[C@@H](CCCCN)C(=O)N[C@@H](CCCCN)C(=O)N[C@@H](CCCNC(=N)N)C(=O)N[C@@H](CCCNC(=N)N)C(=O)N[C@@H](CCC(N)=O)C(=O)N[C@@H](CCCNC(=N)N)C(=O)N[C@@H](CCCNC(=N)N)C(=O)N[C@@H](CCCNC(=N)N)C(N)=O)NC(C)=O)C(=O)NCC(=O)N[C@@H](Cc1ccc(O)cc1)C(=O)N[C@@H](CC(=O)O)C(=O)O [KAI-9706 carrier Ac—NH2 cargo Ac—OH] — higher, 93%
- CC[C@H](C)[C@H](NC(=O)[C@@H]1CCCN1C(=O)[C@H](C)NC(=O)[C@H](CC(=O)O)NC(=O)[C@H](Cc1c[nH]cn1)NC(=O)[C@@H](N)CSSC[C@H](N)C(=O)N[C@@H](Cc1ccc(O)cc1)C(=O)NCC(=O)N[C@@H](CCCNC(=N)N)C(=O)N[C@@H](CCCCN)C(=O)N[C@@H](CCCCN)C(=O)N[C@@H](CCCNC(=N)N)C(=O)N[C@@H](CCCNC(=N)N)C(=O)N[C@@H](CCC(N)=O)C(=O)N[C@@H](CCCNC(=N)N)C(=O)N[C@@H](CCCNC(=N)N)C(=O)N[C@@H](CCCNC(=N)N)C(=O)O)C(=O)NCC(=O)N[C@@H](Cc1ccc(O)cc1)C(=O)N[C@@H](CC(=O)O)C(N)=O [KAI-9706 carrier H—OH cargo H—NH2] — the same, 0%
- CC[C@H](C)[C@H](NC(=O)[C@@H]1CCCN1C(=O)[C@H](C)NC(=O)[C@H](CC(=O)O)NC(=O)[C@H](Cc1c[nH]cn1)NC(=O)[C@H](CSSC[C@H](NC(C)=O)C(=O)N[C@@H](Cc1ccc(O)cc1)C(=O)NCC(=O)N[C@@H](CCCNC(=N)N)C(=O)N[C@@H](CCCCN)C(=O)N[C@@H](CCCCN)C(=O)N[C@@H](CCCNC(=N)N)C(=O)N[C@@H](CCCNC(=N)N)C(=O)N[C@@H](CCC(N)=O)C(=O)N[C@@H](CCCNC(=N)N)C(=O)N[C@@H](CCCNC(=N)N)C(=O)N[C@@H](CCCNC(=N)N)C(N)=O)NC(C)=O)C(=O)NCC(=O)N[C@@H](Cc1ccc(O)cc1)C(=O)N[C@@H](CC(=O)O)C(N)=O [KAI-9706 carrier Ac—NH2 cargo Ac—NH2] — higher, 90%
- CC[C@H](C)[C@H](NC(=O)[C@@H]1CCCN1C(=O)[C@H](C)NC(=O)[C@H](CC(=O)O)NC(=O)[C@H](Cc1c[nH]cn1)NC(=O)[C@@H](N)CSSC[C@H](NC(C)=O)C(=O)N[C@@H](Cc1ccc(O)cc1)C(=O)NCC(=O)N[C@@H](CCCNC(=N)N)C(=O)N[C@@H](CCCCN)C(=O)N[C@@H](CCCCN)C(=O)N[C@@H](CCCNC(=N)N)C(=O)N[C@@H](CCCNC(=N)N)C(=O)N[C@@H](CCC(N)=O)C(=O)N[C@@H](CCCNC(=N)N)C(=O)N[C@@H](CCCNC(=N)N)C(=O)N[C@@H](CCCNC(=N)N)C(N)=O)C(=O)NCC(=O)N[C@@H](Cc1ccc(O)cc1)C(=O)N[C@@H](CC(=O)O)C(N)=O [KAI-9706 carrier Ac—NH2 cargo H—NH2] — higher, 90%
- CC[C@H](C)[C@H](NC(=O)[C@@H]1CCCN1C(=O)[C@H](C)NC(=O)[C@H](CC(=O)O)NC(=O)[C@H](Cc1c[nH]cn1)NC(=O)[C@@H](N)CSSC[C@H](N)C(=O)N[C@@H](Cc1ccc(O)cc1)C(=O)NCC(=O)N[C@@H](CCCNC(=N)N)C(=O)N[C@@H](CCCCN)C(=O)N[C@@H](CCCCN)C(=O)N[C@@H](CCCNC(=N)N)C(=O)N[C@@H](CCCNC(=N)N)C(=O)N[C@@H](CCC(N)=O)C(=O)N[C@@H](CCCNC(=N)N)C(=O)N[C@@H](CCCNC(=N)N)C(=O)N[C@@H](CCCNC(=N)N)C(N)=O)C(=O)NCC(=O)N[C@@H](Cc1ccc(O)cc1)C(=O)N[C@@H](CC(=O)O)C(=O)O [KAI-9706 carrier H—NH2 cargo H—OH] — higher, 60%
